Experimental data as given in ChEMBL document CHEMBL3045992, “Antitumour activity of 5-[(2E)-1-(1H-benzimidazol-2-yl)-3-substituted phenylprop-2-en-1-ylidene] pyrimidine-2,4,6(1H,3H,5H)-triones against Daltons ascitic lymphoma in mice” (Med Chem Res, 2013).

How the values were obtained:
[1] = Antitumor activity against Mus musculus (mouse) DLA cells transplanted in Swiss albino mouse assessed as decrease in alanine amino transferase level at 50 mg/kg, ip qd administered 24 hr post tumor transplantation for 14 days measured on day 14 (reference value: 61.2 +/- 2.6 U/L); format: functional; settings: route intraperitoneal
[2] = Antitumor activity against Mus musculus (mouse) DLA cells transplanted in Swiss albino mouse assessed as increase in haemoglobin level at 50 mg/kg, ip qd administered 24 hr post tumor transplantation for 14 days measured on day 14 (reference value: 7.12 +/- 0.95 g/dl); format: functional; settings: route intraperitoneal
[3] = Antitumor activity against Mus musculus (mouse) DLA cells transplanted in Swiss albino mouse assessed as decrease in triglyceride level at 50 mg/kg, ip qd administered 24 hr post tumor transplantation for 14 days measured on day 14 (reference value: 210.12 +/- 4.65 mg/dl); format: functional; settings: route intraperitoneal
Mus musculus = experiment: Acute toxicity in ip dosed albino Mus musculus (mouse) after 24 hr; format: organism-based; settings: in vivo
[4] = Antitumor activity against Mus musculus (mouse) DLA cells transplanted in Swiss albino mouse assessed as decrease in packed cell volume at 50 mg/kg, ip qd administered 24 hr post tumor transplantation for 14 days measured on day 14 (reference value: 30.55 +/- 3.52%); format: functional; design: scale not given: the % may be the effect or the level left; settings: route intraperitoneal
[5] = Antitumor activity against Mus musculus (mouse) DLA cells transplanted in Swiss albino mouse assessed as increase in platelet count at 50 mg/kg, ip qd administered 24 hr post tumor transplantation for 14 days measured on day 14 (reference value: 1.6 +/- 0.52 lakhs/mm3); format: functional; settings: route intraperitoneal
[6] = Antitumor activity against Mus musculus (mouse) DLA cells transplanted in Swiss albino mouse assessed as decrease in cholesterol level at 50 mg/kg, ip qd administered 24 hr post tumor transplantation for 14 days measured on day 14 (reference value: 140.86 +/- 4.6 mg/dl); format: functional; settings: route intraperitoneal
[7] = Antitumor activity against Mus musculus (mouse) DLA cells transplanted in Swiss albino mouse assessed as increase in life span at 50 mg/kg, ip qd administered 24 hr post tumor transplantation for 14 days measured on day 14 (reference value: 50%); format: functional; settings: route intraperitoneal
[8] = Antitumor activity against Mus musculus (mouse) DLA cells transplanted in Swiss albino mouse assessed as decrease in total WBC count measured 10^3 cells at 50 mg/kg, ip qd administered 24 hr post tumor transplantation for 14 days measured on day 14 (reference value: 14.40 +/- 2.5 ml); format: functional; design: unit not given here; settings: route intraperitoneal
[9] = Antitumor activity against Mus musculus (mouse) DLA cells transplanted in Swiss albino mouse assessed as increase in RBC count at 50 mg/kg, ip qd administered 24 hr post tumor transplantation for 14 days measured on day 14 (reference value: 2.46 +/- 0.45 million/mm3); format: functional; settings: route intraperitoneal
[10] = Antitumor activity against Mus musculus (mouse) DLA cells transplanted in Swiss albino mouse assessed as decrease in alkaline phosphatase level at 50 mg/kg, ip qd administered 24 hr post tumor transplantation for 14 days measured on day 14 (reference value: 242.22 +/- 4.3 U/L); format: functional; settings: route intraperitoneal
[11] = Antitumor activity against Mus musculus (mouse) DLA cells transplanted in Swiss albino mouse assessed as decrease in aspartate amino transferase level at 50 mg/kg, ip qd administered 24 hr post tumor transplantation for 14 days measured on day 14 (reference value: 85.6 +/- 2.72 U/L); format: functional; settings: route intraperitoneal
[12] = Antitumor activity against Mus musculus (mouse) DLA cells transplanted in Swiss albino mouse assessed as decrease in cancer cell count measured 10^6 cells at 50 mg/kg, ip qd administered 24 hr post tumor transplantation for 14 days measured on day 14 (reference value: 2.76 +/- 0.33 ml); format: functional, Cancer cell lines; settings: route intraperitoneal
[13] = Antitumor activity against Mus musculus (mouse) DLA cells transplanted in Swiss albino mouse assessed as decrease in body weight at 50 mg/kg, ip qd administered 24 hr post tumor transplantation for 14 days measured on day 14 (reference value: 7.6 +/- 0.94 g); format: functional; settings: route intraperitoneal
[14] = Antitumor activity against Mus musculus (mouse) DLA cells transplanted in Swiss albino mouse assessed as increase in life span at 20 mg/kg, ip qd administered 24 hr post tumor transplantation for 14 days measured on day 14 (reference value: 50%); format: functional; settings: route intraperitoneal
[15] = Antitumor activity against Mus musculus (mouse) DLA cells transplanted in Swiss albino mouse assessed as decrease in packed cell volume at 20 mg/kg, ip qd administered 24 hr post tumor transplantation for 14 days measured on day 14 (reference value: 30.55 +/- 3.52%); format: functional; design: scale not given: the % may be the effect or the level left; settings: route intraperitoneal
[16] = Antitumor activity against Mus musculus (mouse) DLA cells transplanted in Swiss albino mouse assessed as decrease in cholesterol level at 20 mg/kg, ip qd administered 24 hr post tumor transplantation for 14 days measured on day 14 (reference value: 140.86 +/- 4.6 mg/dl); format: functional; settings: route intraperitoneal
[17] = Antitumor activity against Mus musculus (mouse) DLA cells transplanted in Swiss albino mouse assessed as increase in RBC count at 20 mg/kg, ip qd administered 24 hr post tumor transplantation for 14 days measured on day 14 (reference value: 2.46 +/- 0.45 million/mm3); format: functional; settings: route intraperitoneal
[18] = Antitumor activity against Mus musculus (mouse) DLA cells transplanted in Swiss albino mouse assessed as decrease in aspartate amino transferase level at 20 mg/kg, ip qd administered 24 hr post tumor transplantation for 14 days measured on day 14 (reference value: 85.6 +/- 2.72 U/L); format: functional; settings: route intraperitoneal
[19] = Antitumor activity against Mus musculus (mouse) DLA cells transplanted in Swiss albino mouse assessed as increase in platelet count at 20 mg/kg, ip qd administered 24 hr post tumor transplantation for 14 days measured on day 14 (reference value: 1.6 +/- 0.52 lakhs/mm3); format: functional; settings: route intraperitoneal
[20] = Antitumor activity against Mus musculus (mouse) DLA cells transplanted in Swiss albino mouse assessed as increase in haemoglobin level at 20 mg/kg, ip qd administered 24 hr post tumor transplantation for 14 days measured on day 14 (reference value: 7.12 +/- 0.95 g/dl); format: functional; settings: route intraperitoneal
[21] = Antitumor activity against Mus musculus (mouse) DLA cells transplanted in Swiss albino mouse assessed as decrease in body weight at 20 mg/kg, ip qd administered 24 hr post tumor transplantation for 14 days measured on day 14 (reference value: 7.6 +/- 0.94 g); format: functional; settings: route intraperitoneal
[22] = Antitumor activity against Mus musculus (mouse) DLA cells transplanted in Swiss albino mouse assessed as decrease in alanine amino transferase level at 20 mg/kg, ip qd administered 24 hr post tumor transplantation for 14 days measured on day 14 (reference value: 61.2 +/- 2.6 U/L); format: functional; settings: route intraperitoneal
[23] = Antitumor activity against Mus musculus (mouse) DLA cells transplanted in Swiss albino mouse assessed as decrease in triglyceride level at 20 mg/kg, ip qd administered 24 hr post tumor transplantation for 14 days measured on day 14 (reference value: 210.12 +/- 4.65 mg/dl); format: functional; settings: route intraperitoneal
[24] = Antitumor activity against Mus musculus (mouse) DLA cells transplanted in Swiss albino mouse assessed as decrease in alkaline phosphatase level at 20 mg/kg, ip qd administered 24 hr post tumor transplantation for 14 days measured on day 14 (reference value: 242.22 +/- 4.3 U/L); format: functional; settings: route intraperitoneal
[25] = Antitumor activity against Mus musculus (mouse) DLA cells transplanted in Swiss albino mouse assessed as decrease in total WBC count measured 10^3 cells at 20 mg/kg, ip qd administered 24 hr post tumor transplantation for 14 days measured on day 14 (reference value: 14.40 +/- 2.5 ml); format: functional; settings: route intraperitoneal
[26] = Antitumor activity against Mus musculus (mouse) DLA cells transplanted in Swiss albino mouse assessed as decrease in cancer cell count measured 10^6 cells at 20 mg/kg, ip qd administered 24 hr post tumor transplantation for 14 days measured on day 14 (reference value: 2.76 +/- 0.33 ml); format: functional, Cancer cell lines; settings: route intraperitoneal

Structure (SMILES) | Activity [1] | Activity [2] | Activity [3] | ED50 (Mus musculus) | Activity [4] | Activity [5] | Activity [6] | Activity [7] | Activity [8] | Activity [9] | Activity [10] | Activity [11] | Activity [12] | Activity [13] | further results
COc1ccc(/C=C/C(=C2C(=O)NC(=O)NC2=O)c2nc3ccccc3[nH]2)cc1 | 53.52 U/L | 10.28 g/dL | 170.6 mg/dL | 50 mg/kg | 22.9% | 2.12 ×10⁵ /mm3 | 126.35 mg/dL | 72% | 12.55 | 3.15 million/mm3 | 218.26 U/L | 75.62 U/L | 1.96 mL | 6.3 g | 
O=C1NC(=O)C(=C(/C=C/c2ccccc2O)c2nc3ccccc3[nH]2)C(=O)N1 | 56.42 U/L | 10.1 g/dL | 178.7 mg/dL | 50 mg/kg | 23.68% | 2.05 ×10⁵ /mm3 | 131.3 mg/dL | 69% | 13.45 | 2.8 million/mm3 | 229.15 U/L | 75.4 U/L | 2.03 mL | 5.43 g | 
O=c1[nH]cc(F)c(=O)[nH]1 [FLUOROURACIL] |  |  |  |  |  |  |  |  |  |  |  |  |  |  | Activity [14]: 94%; Activity [15]: 17.45%; Activity [16]: 112.52 mg/dL; Activity [17]: 4.1 million/mm3; Activity [18]: 56.3 U/L; Activity [19]: 2.65 ×10⁵ /mm3; Activity [20]: 11.5 g/dL; Activity [21]: 3.7 g; Activity [22]: 42.45 U/L; Activity [23]: 156.42 mg/dL; Activity [24]: 162.3 U/L; Activity [25]: 11.3 mL; Activity [26]: 1.3 mL
O=C1NC(=O)C(=C(/C=C/c2cccc([N+](=O)[O-])c2)c2nc3ccccc3[nH]2)C(=O)N1 | 53.42 U/L | 10.5 g/dL | 168.7 mg/dL | 50 mg/kg | 20.48% | 2.3 ×10⁵ /mm3 | 122.3 mg/dL | 76% | 12.45 | 3.3 million/mm3 | 202.85 U/L | 72.6 U/L | 1.88 mL | 5.88 g | 
O=C1NC(=O)C(=C(/C=C/c2ccc(Cl)cc2)c2nc3ccccc3[nH]2)C(=O)N1 | 55.6 U/L | 10.3 g/dL | 182.5 mg/dL | 50 mg/kg | 23.1% | 2.1 ×10⁵ /mm3 | 129.32 mg/dL | 70% | 12.7 | 3.1 million/mm3 | 223.36 U/L | 76.52 U/L | 2.12 mL | 6.6 g | 
O=C1NC(=O)C(=C(/C=C/c2ccccc2)c2nc3ccccc3[nH]2)C(=O)N1 | 57.3 U/L | 9.3 g/dL | 186.85 mg/dL | 50 mg/kg | 24.1% | 1.99 ×10⁵ /mm3 | 136.45 mg/dL | 66% | 13.8 | 2.9 million/mm3 | 232.32 U/L | 77.6 U/L | 2.26 mL | 6.45 g | 
CN(C)c1ccc(/C=C/C(=C2C(=O)NC(=O)NC2=O)c2nc3ccccc3[nH]2)cc1 | 51.45 U/L | 10.42 g/dL | 172.4 mg/dL | 50 mg/kg | 22.42% | 2.22 ×10⁵ /mm3 | 124.3 mg/dL | 74% | 12.5 | 3.25 million/mm3 | 210.21 U/L | 73.4 U/L | 1.9 mL | 5.9 g | 
